Here are results for 14 compounds from patent US20240415819A1, “MACROCYCLIC COMPOUNDS AS PROTEASOME SUBUNIT BETA TYPE-5 INHIBITORS” (Lead Discovery Center GmbH, priority 2021, published 2024).

One test relates to HT-29 cells. As to the kind of experiment: CellTiter-Glo luminescent cell viability assay with HT-29 cells (72h incubation). It counts as cell-based, human. To be noted: Homo sapiens, HT-29, HT29 cells, read-out: CTG HT29. The protocol: Cell Titer Glo Viability Assay with HT-29 Cells (72h Incubation) The CellTiter-Glo Luminescent Cell Viability Assay (Promega) is a homogeneous method of determining the number of viable cells in culture. It is based on quantification of ATP, indicating the presence of metabolically active cells. On day 1 400 HT-29 cells per well are seeded in white 384well plates (Greiner, #781080) in 25 μl cell culture medium (DMEM (PAN-Biotech #P04-03590)+10% FCS+glutamine). After incubation for 24 h at 37° C./5% CO2 compounds or DMSO are added at different concentrations by Echo Liquid Handling Technology. Cells are further incubated in humidified chambers for 72 h at 37° C. and 5% CO2. Cells treated with the compound vehicle DMSO are used as positive controls and cells treated with 10 μM Staurosporine serve as negative controls. At day 5-72h after compound addition—the CellTiter Glo Reagent is prepared according to the instructions of the kit (Promega Inc.): Reagent is mixed 1:1 with cell culture medium. Thereon, mixture and assay plates are equilibrated at room temperature for 20 min. Equal volumes of the reagent-medium-mixture is added to the volume of culture medium present in each well. The plates are mixed at […] for 2 minutes on an orbital shaker. The microplates are then incubated at room temperature for 10 minutes for stabilization of the luminescent signal. Following incubation the luminescence is recorded on a Victor microplate reader (Perkin Elmer) using a 200 ms integration time. The data is then analyzed with Excel using the XLFIT Plugin (dose response Fit 205) for IC50-determination. As quality control the Z′-factor is calculated from 16 positive and negative control values. […] Inhibition is indicated as IC50 [nM] (“-”=not measured).
(Cellular ATP, detected with luciferase, serves as a proxy for viable cell number.)

The target of test [1] is T1, β5 subunit of the human constitutive proteasome (CPS) (Homo sapiens, UniProt P28074).
T1 construct: purchased Boston Biochem E-360
As to the kind of experiment: β5 inhibition assay, human constitutive proteasome (Suc-LLVY-AMC). It counts as biochemical. The settings on record: IC50 class, Suc-LLVY-AMC substrate. As to the method: The enzymatic activity of the β5 subunit of the human constitutive proteasome (CPS) is analyzed. In another assay, which differs from the assay of the human constitutive proteasome only in using the human immunoproteasome (IPS) the enzymatic activity of the β5 subunit of the human immunoproteasome (IPS) is analyzed. […] Inhibition is indicated as IC50 [nM] (“-”=not measured).

The target of test [2] is T2, β5 subunit of the human immunoproteasome (IPS) (Homo sapiens, UniProt P28062).
T2 construct: purchased Boston Biochem E-370
Briefly: β5 inhibition assay, human immunoproteasome (Suc-LLVY-AMC). It counts as biochemical. To be noted: IC50 class, Suc-LLVY-AMC substrate. As to the method:
The enzymatic activity of the β5 subunit of the human constitutive proteasome (CPS) is analyzed. In another assay, which differs from the assay of the human constitutive proteasome only in using the human immunoproteasome (IPS) the enzymatic activity of the β5 subunit of the human immunoproteasome (IPS) is analyzed. Incubation of the enzyme with its fluorogenic substrate Suc-LLVY-AMC leads to liberation of the fluorescent dye AMC which can be measured with a suitable plate reader. • 100 mM HEPES pH7.5 • 50 mM NaCl • 0.02% SDS • 1 mM DTT (add fresh) • Victor X5 (Perkin Elmer) • Label: Umbeliferone (0.1s) • Excitation wavelength: 355 nm • Emission wavelength: 460 nm • 4 μl human cPS or IPS enzyme in assay buffer (final assay concentration 1 nM) or 4 μl assay buffer for negative controls • Compound addition via acoustic dispenser (Echo 520, Labcyte) • Mix and incubate @ RT for 10 min • 4 μl Suc-LLVY-AMC substrate (final assay concentration 22.6 μM) • Mix and incubate @ RT for 4 h (dark) • Stop reaction with 4 μl Bortezomib (final assay concentration 1 μM) • 15 min @ RT • Measure (Excitation 355 nm; Emission 460 nm)

Test [3] has as its system A549 (human lung carcinoma cell line). As to the kind of experiment: Glo assay of A549 cells (Table 3; ProteasomeGlo plating scheme). Format: cell-based. To be noted: Homo sapiens; A549 cells; read-out: PGLo A549. The source says: Inhibition is indicated as IC50 [nM] (“-”=not measured). […] • Chymotrypsin-Like Cell-Based Proteasome-GloTM Assay (Promega; […]) • Cell culture 384-well plates (Greiner BioOne; 781080) • Dispensing cassette, MultiDrop Standard tube dispensing cassette (Thermo Scientific; 24072670) • DPBS (Pan BioTech; P04-36500) • Cell culture 384-well plates (Greiner BioOne; 781080) • CPD source plate: diamond-shape plate (Labcyte; LP-0200) • Intermediate plate (Labcyte; P-05525) [table] • a. Remove the plates with cells from the incubator. • b. Take all the plates including the compound plate, intermediate plate and Staurosporine plate to the ECHO. • c. Click on “Open” in the ECHO software and select the protocol “QLI5_25ul_30 uM-Grenier”. • d. Follow the on-screen prompts and instructions once you click “Start” to insert the compound plate, intermediate plate and destination plates. • e. Change the final number of destination plates on the program. • f. Follow the on-screen prompts and instructions once you click “Start” to load the Staurosporine and destination plates. • g. Once all the compounds, DMSO and Staurosporine have been transferred, place the destination plates in a wet tissue box. • h. Place the destination plates back into the incubator and incubate at 37° C., 5% CO2 for 105 minutes. • i. Re-seal all the compound+Stauro diamond and intermediate plates and store in the dark. Chymotrypsin like ProteasomeGlo Assay • 1. Thaw the components of the ProteasomeGlo assay at room temperature including the ProteasomeGlo Buffer, the lyophilized Luciferin Detection Reagent and the Suc-LLVY-Glo Substrate. • 2. Reconstitute the Luciferin Detection Reagent in the amber coloured bottle by adding 50 ml of the ProteasomeGlo Buffer. • 3. Vortex the Suc-LLVY-Glo Substrate briefly to reconstitute the Substrate well. • 4. Spin down the Substrate and add 250 μl of the Substrate to the reconstituted Luciferin Detection Reagent from step 2. • 5. Briefly vortex the amber bottle with the mix to prepare a homogenous solution. • 6. Place the mix prepared in step 5 to sit at room temperature for 60 minutes. • 7. After 60 minutes, pipette 25 μl of the mix from step 5 into all wells with the cells. • 8. Shake the plates for 2-5 minutes to ensure the complete mixing of the ProteasomeGlo reagent with the cells. • 9. Leave the plates in the dark for 10-15 minutes. • 10. Measure the luminescence read-out using the Viktor and the protocol “Luminescence_384Well_0.2 sec”. (Note: The Protoeasome-GloTM Reagent (combined Proteasome-GloTM Substrate, Proteasome-GloTM Buffer and Luciferin Detection Reagent) can be stored at 4° C. or -20° C. for 1 month with minimal loss of activity.)

Bounds are passed on as bounds.

Consider `CC(=O)N[C@H]1CC(=O)NCCOc2ccc(C)c(c2)CNC(=O)[C@H](CCc2ccccc2)NC1=O` [Compound 252, N-((8S,11S)-1^4-methyl-6,9,12-trioxo-11-phenethyl-2-oxa-5,10,13-triaza-1(1,3)-benzenacyclotetradecaphane-8-yl)acetamide], for which the IC50 in the test on HT-29 cells was 100 to 500 nM.

On to `CC(=O)N[C@H]1CC(=O)N2CC3CC(Oc4ccc(C)c(c4)CNC(=O)[C@H](CCc4ccccc4)NC1=O)C3C2` (some centres unmarked) [Compound 298, N-(3^4-methyl-6,9,12-trioxo-7-phenethyl-2-oxa-13,5,8-triaza-1(6,3)-bicyclo[3.2.0]heptana-3(1,3)-benzenacyclododecaphane-10-yl)acetamide], for which the IC50 in the test on HT-29 cells was in the range of 100 to 500 nM.

Regarding `Cc1ccc2cc1CNC(=O)[C@H](CCc1ccccc1)NC(=O)[C@@H](NC(=O)CCNC(=O)C1CCC3(CCOCC3)CC1)CC(=O)N1CCCC(CCO2)C1` (some centres unmarked) [Compound 576], the IC50 in test [1] and in test [2] was under 100 nM in each case.

With `Cc1ccc2cc1CNC(=O)[C@H](CCc1ccccc1)NC(=O)[C@@H](NC(=O)Cc1ccc(N)cc1)CC(=O)N1CCC[C@@H](CCO2)C1` [Compound 173, 2-(4-aminophenyl)-N-((13S,9S,12S)-5^4-methyl-8,11,14-trioxo-9-phenethyl-4-oxa-7,10-diaza-1(3,1)-piperidina-5(1,3)-benzenacyclotetradecaphane-12-yl)acetamide], the IC50 in the test on HT-29 cells fell in the range of 100 to 500 nM.

As to `Cc1ccc2cc1CNC(=O)[C@H](CCc1ccccc1)NC(=O)[C@@H](NS(=O)(=O)CCCc1ccccc1)CC(=O)N1CCCC(CCO2)C1` (stereo partly drawn) [Compound 44, N-((9S,12S)-5^4-methyl-8,11,14-trioxo-9-phenethyl-4-oxa-7,10-diaza-1(3,1)-piperidina-5(1,3)-benzenacyclotetradecaphane-12-yl)-3-phenyloropane-1-sulfonamide], the IC50 with HT-29 cells is under 100 nM.

For `CCNC(=O)N[C@H]1CC(=O)N2CCCC(CCOc3ccc(C)c(c3)CNC(=O)[C@H](CCc3ccccc3)NC1=O)C2` (stereo partly drawn) [Compound 38, 1-ethyl-3-((9S,12S)-5^4-methyl-8,11,14-trioxo-9-phenethyl-4-oxa-7,10-diaza-1(3,1)-piperidina-5(1,3)-benzenacyclotetradecaphane-12-yl)urea], the IC50 in the test with HT-29 cells is under 100 nM.

Take `CC(=O)N[C@H]1CC(=O)N2CCC(C2)Oc2ccc(C)c(c2)CNC(=O)[C@H](CCc2ccccc2)NC1=O` (stereo partly drawn) [Compound 261, N-((7S,10S)-3^4-methyl-6,9,12-trioxo-7-phenethyl-2-oxa-5,8-diaza-1(3,1)-pyrrolidina-3(1,3)-benzenacyclododecaphane-10-yl)acetamide]: the IC50 with HT-29 cells was 100 to 500 nM.

In the case of `CC(=O)N[C@H]1CC(=O)N2CCCC(CCOc3ccc(C)c(c3)CNC(=O)C(c3cnn(CCS(=O)(=O)O)c3)NC1=O)C2` (stereo partly drawn) [Compound 572, N-(4-((12S)-12-acetamido-5^4-methyl-8,11,14-trioxo-4-oxa-7,10-diaza-1(3,1)-piperidina-5(1,3)-benzenacyclotetradecaphane-9-yl)-1H-pyrazol-1-yl)ethane-1-sulfonic acid], the IC50 with HT-29 cells was in the range of 100 to 500 nM.

`Cc1cccc(CC(=O)N[C@H]2CC(=O)N3CCCC(CCOc4ccc(C)c(c4)CNC(=O)[C@H](CCc4ccccc4)NC2=O)C3)c1` (stereo partly drawn) [Compound 62, N-((9S,12S)-5^4-methyl-8,11,14-trioxo-9-phenethyl-4-oxa-7,10-diaza-1(3,1)-piperidina-5(1,3)-benzenacyclotetradecaphane-12-yl)-2-(m-tolyl)acetamide]: in the test on HT-29 cells, the IC50 is under 100 nM.

Consider `CC(=O)N[C@H]1CC(=O)N2CCCC(CCOc3ccc(C)c(c3)CNC(=O)C(CCc3ccccc3)NC1=O)C2` (stereo partly drawn) [Compound 550, N-((12S)-5^4-methyl-8,11,14-trioxo-9-phenethyl-4-oxa-7,10-diaza-1(3,1)-piperidina-5(1,3)-benzenacyclotetradecaphane-12-yl)acetamide], for which the IC50 in the test on HT-29 cells was under 100 nM.

Consider `CCC1(C(=O)N[C@H]2CC(=O)N3CCCC(CCOc4ccc(C)c(c4)CNC(=O)[C@H](CCc4ccccc4)NC2=O)C3)CCNCC1` (stereo partly drawn) [Compound 151, 4-ethyl-N-((9S,12S)-5^4-methyl-8,11,14-trioxo-9-phenethyl-4-oxa-7,10-diaza-1(3,1)-piperidina-5(1,3)-benzenacyclotetradecaphane-12-yl)piperidine-4-carboxamide], for which the IC50 in the test on HT-29 cells is under 100 nM.

`Cc1ccc2cc1CNC(=O)[C@H](CCc1ccccc1)NC(=O)[C@@H](NC(=O)c1cccnc1)CC(=O)N1CCCC(CCO2)C1` (stereo partly drawn) [Compound 41, N-((9S,12S)-5^4-methyl-8,11,14-trioxo-9-phenethyl-4-oxa-7,10-diaza-1(3,1)-piperidina-5(1,3)-benzenacyclotetradecaphane-12-yl)nicotinamide]: the IC50 with HT-29 cells is under 100 nM.

`Cc1ccc2cc1CNC(=O)[C@H](CCc1ccccc1)NC(=O)[C@@H](NC(=O)Cc1ccc(N)cc1)CC(=O)N1CCC[C@H](CCO2)C1` [Compound 172, 2-(4-aminophenyl)-N-((13R,9S,12S)-5^4-methyl-8,11,14-trioxo-9-phenethyl-4-oxa-7,10-diaza-1(3,1)-piperidina-5(1,3)-benzenacyclotetradecaphane-12-yl)acetamide]: the IC50 with HT-29 cells is under 100 nM.

For `Cc1ccc2cc1CNC(=O)[C@H](CCc1ccccc1)NC(=O)[C@@H](NC(=O)CCOCCCC1CCCC1)CC(=O)N1CCCC(CCO2)C1` (stereo partly drawn) [Compound 620, 3-(3-cyclopentylpropoxy)-N-((9S,12S)-5^4-methyl-8,11,14-trioxo-9-phenethyl-4-oxa-7,10-diaza-1(3,1)-piperidina-5(1,3)-benzenacyclotetradecaphane-12-yl)propanamide], the IC50 in test [1], in test [3] and in test [2] was under 100 nM throughout.
